Source: patent US6656499B1, “Composition for transdermal and dermal administration of interferon-α” (PharmaDerm Laboratories, Ltd., priority 1999, dated 2003)

How the values were obtained:
[1] = In vitro diffusion of IFN-α into human skin, flow-through diffusion cells, antiviral bioassay of skin homogenate; details: Biphasic lipid vesicles + acylated amino acid + IFN-α, 24 hours, n = 4
[2] = guinea pigs, lipid vesicle patch 24 hours, FIG. 1A, vs untreated control animals
[3] = Immunohistochemistry of skin biopsies with anti-IFN-α antibodies; type: in vivo, human; details: 40 MU group, treated skin site vs untreated skin
Excerpt: The skin biopsy taken from the site of application of the biphasic lipid vesicle-containing transdermal patch of each test subject was processed for immunohistochemistry. A skin sample from a representative individual in the treatment group receiving 40 MU IFN-α was compared visually to a skin section of control, untreated skin after staining both samples with anti-IFN-α antibodies. […] This staining pattern was characteristic in all volunteers in this treatment group.
Sections 5 μm in thickness were cut and after antigen retrieval with 10 mM Na-citrate the sections were incubated with mouse anti-human interferon alpha antibody (1:2,000-1:5,000), which were in turn treated with a biotinylated rabbit anti-mouse secondary antibody and stained by the Avidin Biotin Complex (ABC) method.

[4] = human, in vivo
Method: The human subjects were divided randomly into three groups for treatment with a transdermal patch containing a lipid vesicle compositions at one of the three IFN-α concentrations. […] After treatment with the placebo, skin biopsies and blood samples were collected from each subject. In Phase II of the study, each subject was treated with a transdermal patch containing IFN-α entrapped in biphasic lipid vesicles at one of the three concentrations: 5 MU/g formulation/patch, 15 MU/g formulation/patch or 40 MU/g formulation/patch. After treatment for 48 hours, skin biopsies and blood samples were taken and analyzed. The biopsy samples were analyzed by immunohistochemistry, antiviral assay, ELISA and 2-5A synthetase assays. The blood samples were used to prepare serum for the antiviral and ELISA assays and to extract peripheral blood mononuclear cells for the 2-5A synthetase assay.
To determine IFN-α concentration in skin homogenates, Cytoscreen™ ELISA kit (Medicorp, Montreal, PQ) was used. The sensitivity of the assay is <25 pg/mL and the range of concentration is 0-500 pg/mL. The assay is specific for human IFN-α with no cross-reactivity with human IFNβ, IFNγ or IFNω. The results are expressed as pg IFN-α/mg skin.
Seventeen human volunteers were randomized into three treatment groups. […]

[5] = test system: Ki67 nuclear protein in proliferating cells; test: Anti-proliferation assay on skin sections of human volunteers (Ki67 staining); type: in vivo; details: for Average % decrease of proliferative cells stained by anti-Ki67 antibody: 48 hours
Excerpt: Skin sections were also stained for Ki67 nuclear protein in proliferating cells using anti-M1B1 monoclonal antibodies (Rose et al., J. Clin. Pathol., 47:1010 (1994)) and visualized.
The number of stained cells were counted before and after treatment sections. The decreased number of stained cells were expressed as a percentage.

[6] = Antiviral activity in serum of human subjects after transdermal patch; details: individual subjects in each treatment group (5, 15, 40 MU), before vs after 48 hours patch, FIGS. 4A-4C
[7] = test system: 2-5A synthetase; test: 2-5A synthetase enzyme activity in PBMC of treated human subjects; type: in vivo; details: all three treatment groups compared to their untreated controls (p<0.05)
Method: The experimental protocol is set forth in Example 5C.
Induction of 2-5A synthetase enzyme activity in peripheral blood mononuclear cells (PBMC) was used as an indication for the systemic delivery of IFN-α from biphasic delivery systems.
2-5A synthetase was determined by a ^125I-2-5A radioimmuno assay kit (Eiken Chemical Corp., Tokyo, Japan) using rabbit anti-human 2-5A antibody and goat antirabbit IgG as secondary antibody. Briefly, 2-5A synthetase was extracted from the samples by poly (I) poly (C) agarose for 10 min. After the addition of ATP solution (24 μg/mL) and incubation, 100 μL ^125I-2-5A was added, followed by the primary and secondary antibody. Radioactivity bound was determined by gamma counting. 2-5A synthetase is measured as pmol 2-5A produced/100 mL/h and subsequently expressed as nmole enzyme/mg protein 1 h in skin homogenate. All samples were run in duplicates.

Compound: CCCCCCCCCCCC(=O)NCCCC[C@H](N)C(=O)O [MLL, Lauroyl lysine]
- Average Amount of IFN-α in skin [1]: 250 ± 112 U/mg protein

Compound: CCCCCCCC(=O)N[C@H](C(=O)OC)[C@@H](C)O [PDM1, N-capryloyl-L-threonine methyl ester]
- Average Amount of IFN-α in skin [1]: 290 ± 172 U/mg protein

Compound: CCCCCCCCCCCCCCCCCCCC(=O)N[C@@H](CO)C(=O)O [PDM3, N-eicosanoyl-L-serine]
- Average Amount of IFN-α in skin [1]: 2022 ± 1046 U/mg protein
- serum antiviral activity / transdermal skin penetration (in words) [2]: significant increase

Compound: CCCCCCCCCCCCCCCCCCCC(=O)N[C@H](C(=O)O)[C@@H](C)O [PDM4, N-eicosanoyl threonine]
- Average Amount of IFN-α in skin [1]: 1707 ± 538 U/mg protein

Compound: CCCCCCCCCCCCCCCC(=O)N[C@@H](CCCCNC(=O)CCCCCCCCCCC)C(=O)OC [PDM17, Nα-palmitoyl-Nε Lauroyl-L- lysine methyl ester]
- Average Amount of IFN-α in skin [1]: 540 ± 239 U/mg protein

Compound: CCCCCCCCCCCC(=O)NCCCC[C@H](NC(=O)CCCCCCCCCCC)C(=O)OC [PDM18, Nα lauroyl-Nε Lauroyl-L- lysine methyl ester]
- Average Amount of IFN-α in skin [1]: 84 ± 52 U/mg protein

Compound: IFN-α
- IFN-α specific immunostaining of skin section (in words) [3]: IFN-α specific immunostaining throughout the stratum corneum, epidermis and dermis
- further increase in IFN-α levels in skin homogenates (in words) [4]: No significant further increase
- increase in IFN-α levels in post-treatment skin homogenates (ELISA) [4]: 3 fold
- Average % decrease of proliferative cells stained by anti-Ki67 antibody ([5]; Dose 5 MU, compared to placebo treated skin): 14%
- anti-proliferative ratio ([5]; Dose 5 MU, proliferating cells in placebo treated skin / after treatment): 1.21
- Average % decrease of proliferative cells stained by anti-Ki67 antibody ([5]; Dose 15 MU, compared to placebo treated skin): 10%
- anti-proliferative ratio ([5]; Dose 15 MU, proliferating cells in placebo treated skin / after treatment): 1.32
- Average % decrease of proliferative cells stained by anti-Ki67 antibody ([5]; Dose 40 MU, compared to untreated skin): 38%
- anti-proliferative ratio ([5]; Dose 40 MU, proliferating cells in untreated skin / after treatment): 2
- Ki67 staining of skin sections, anti-proliferative effect (in words) ([5]; skin treated with IFN-α): decreased staining
- serum antiviral activity (in words) [6]: significant increase
- induction in 2-5A synthetase enzyme activity (in words) [7]: significant induction
